We go through one cell line from the supplement of paper PMC10307832.

Holding throughout (test): relative viability (nuclei count vs DMSO), 5 days (fraction); higher = more cells survive
Compound in experiment [1]: CN(C)C(=N)NC(=N)N [Metformin] + Cc1nc(NC(=O)N2CCC[C@H]2C(N)=O)sc1-c1ccnc(C(C)(C)C(F)(F)F)c1 [Alpelisib] (partner 2 µM)
In short, it runs like this:
(§1)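 Lung cancer cell lines were pin-tool dosed in 1536-well plates on the day after seeding, with either a lone drug or a fixed anchor-drug dose plus five library-drug doses (not always all listed) in √10 steps. Nuclei were counted on 4× images after 5 days. Relative viability is the ratio of treated-well to vehicle-well nuclei counts, with each value a median of duplicate plates.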

Compound in experiment [2]: CN(C)C(=N)NC(=N)N [Metformin] + N=C(N)NC(=N)NCCc1ccccc1 [Phenformin] (partner 250 µM)
In short, it runs like this: as §1

Compound in experiment [3]: CN(C)C(=N)NC(=N)N [Metformin] + CCNC(=O)c1noc(-c2cc(C(C)C)c(O)cc2O)c1-c1ccc(CN2CCOCC2)cc1 [Luminespib] (partner 0.01 µM)
In short, it runs like this:
as §1

Compound in experiment [4]: CN(C)C(=N)NC(=N)N [Metformin] + CC(=O)c1c(C)c2cnc(Nc3ccc(N4CCNCC4)cn3)nc2n(C2CCCC2)c1=O [Palbociclib] (partner 0.5 µM)
In short, it runs like this:
as §1

In the case of NCI-H460, the relative viability was 0.471 in experiment [1] (first compound 31.62 µM); 0.534 in experiment [1] (first compound 100 µM); 0.502 in experiment [1] (first compound 316.23 µM); 0.471 in experiment [1] (first compound 1000 µM); 0.426 in experiment [2] (first compound 10 µM); 0.541 in experiment [2] (first compound 31.62 µM). Besides, the relative viability in experiment [2] (first compound 100 µM) was determined as 0.516; in experiment [2] (first compound 316.23 µM) it was 0.509; in experiment [2] (first compound 1000 µM), 0.523; in experiment [3] (first compound 10 µM), 0.048; in experiment [3] (first compound 31.62 µM) it was 0.0359; in experiment [3] (first compound 100 µM), 0.0322. Besides, the relative viability in experiment [3] (first compound 316.23 µM) was 0.0306; in experiment [3] (first compound 1000 µM), 0.0333; in experiment [4] (first compound 31.62 µM), 0.191; in experiment [4] (first compound 100 µM), 0.249; in experiment [4] (first compound 316.23 µM), 0.105; in experiment [4] (first compound 1000 µM), 0.148.
